In general, LD50 refers to the dose expected to kill half of the subjects tested.

This is an account of results in patent US4287191A, “Novel salicylanilides and microbiocidal compositions and uses thereof” (The Research Foundation of State University of New York, priority 1980, dated 1981).

pIC50: −log10 of the molar value. Values after ≈ are worked out from the molar mass of the structure shown. Where two headings read alike, the source gives them in different places.

The nature of data set [1]: Acute oral toxicity of AN-10 (single dose, gavage). Format: in vivo. The procedure:
Sixteen female white rats averaging 265 grams in weight were fasted overnight and divided into four groups of four animals each. In one group each animal received, by gavage tube, 4 ml of an aqueous solution of 1% methylcellulose, the drug delivery vehicle. This group was the control group. The remaining three groups received doses of 50, 750, and 2000 mg/kg of AN-10 in 4-ml aqueous suspension, respectively.
This animal had received the 50 mg/kg dose.
From this experiment it can be concluded that the LD50 for AN-10 by the single dose oral route is greater than 2000 mg/kg in Osborne-Mendel white rats.

Data set [2] relates to A.viscosus. Description: Plaque growth inhibition in vitro on bovine tooth slabs, A.viscosus. Format: cell-based, Actinomyces viscosus. As to conditions: for pIC50: Actinomyces viscosus, 2 min slab exposure, about 24 h incubation, aerobic, reliability + or -80% or better. The procedure:
(§1) The composition prepared in example 2 above is tested in vitro for plaque inhibition in comparison with prior art compounds. The test used is set forth in detail in Comparison of Antiplaque Agents Using an In Vitro Assay Reflecting Oral Conditions by R. T. Evans et al, Journal of Dental Research, June 1977.
(§2) In summary bovine mandibles, obtained immediately after slaughter, are cut into 4×8 mm slabs and sterilized in a 0.15 M NaCl solution buffered at a pH of 7.5 with 0.02 M sodium phosphate (PBS soln.) Before use the slabs are coated with sterile saliva and then rinsed twice in sterile PBS. The slabs are then placed in small plastic petri dishes containing various concentrations of the compositions to be tested. The test solution used in accordance is a solution of the composition in a mixture of 20% by volume of ethanol, 40% by volume of propylene glycol and 40% by volume of a pH 8 aqueous buffer solution containing mono and di sodium phosphates. The slabs are left in the solution of the composition for two minutes and then rinsed in sterile PBS solution. After rinsing, each slab is placed in a 10×75 mm cotton stoppered glass culture tube containing 1 ml of sucrose-broth culture medium which is then innoculated with a 24 hour culture of the desired microorganism standardized to an optical density (OD) 540 of 1.0 for A. naeslundii and S. sanguis and of 0.75 for A. viscosus and S. mutans. 50 μl of the inoculation medium is used. A. viscosus is incubated under aerobic conditions and the others are incubated under anaerobic conditions (5% CO2 and 95% H2). After incubation for about 24 hours the nonadherent organisms are removed and the tube is rinsed twice with 0.5 ml of PBS and the washings combined with the nonadherent organisms.
(§3) The tooth slabs are then transferred to 1 ml of 0.1 N NaOH and 1 ml of 0.1 N NaOH is also added to the glass culture tubes. The slabs and tubes are then sonically agitated, if necessary to suspend the adherent organisms. The optical density of each of the three fractions is then measured on a spectophotometer. The tests are repeated with varying concentrations of the compositions being tested until growth inhibition curves can be developed. The 50% growth inhibition dosages (ID50) are then determined with a reliability of + or -80% or better.

Data set [3] has as its system A.naeslundii. Nature of the data set: Plaque growth inhibition in vitro on bovine tooth slabs, A.naeslundii. Format: cell-based, Actinomyces naeslundii. Conditions: for pIC50: Actinomyces naeslundii, 2 min slab exposure, about 24 h incubation, anaerobic, reliability + or -80% or better. The procedure:
as §1, §2, §3

Data set [4] relates to S.sanguis. Description: Plaque growth inhibition in vitro on bovine tooth slabs, S.sanguis. Format: cell-based, Streptoccus sanguis. Conditions: for pIC50: 2 min slab exposure, about 24 h incubation, anaerobic, reliability + or -80% or better; for % Inhibition @ Mol.Conc.: @ 1 × 10^-3 Mol.Conc. As to the method:
as §1, §2, §3

The test system of data set [5] is S.mutans. Description: Plaque growth inhibition in vitro on bovine tooth slabs, S.mutans. Format: cell-based, Streptococcus mutans. As to conditions: for pIC50: Streptococcus mutans, 2 min slab exposure, about 24 h incubation, anaerobic, reliability + or -80% or better. The procedure: as §1, §2, §3
The subject of data set [6] is A.viscosus. Description: Bactericidal effects against established dental plaque (nichrome wires), A.viscosus. Format: cell-based. Conditions: Actinomyces viscosus, 2 min, read-out: Minimum Concentration Required for Complete Bactericidal Effect. As to the method: (§4) In vitro plaques are grown on no. 20 nichrome wires by fixing the wires to culture tube closures to suspend the wires into a complex culture medium supplemented with 5% by wt of sucrose and 0.005% sodium carbonate. Separate cultures are initially inoculated with A.viscosus and S.mutans and the wires are transferred daily to fresh medium until the wire-adherent microorganisms form well established plaques. All cultures are incubated at 37 degrees C. Plaque coated wires are then immersed in a solution of composition to be tested. The compositions tested are AN-10 and Chlorhexidine. The immersion time is two minutes. The solution in which the composition is dissolved is the same solution used to dissolve the composition in the previous example. The plaque is then rinsed with distilled water and transferred to fresh medium. The lack of growth in the fresh medium is considered as an indication that the microorganisms have been killed. Further plaque coated wires are treated as previously described until sufficient information is obtained to determine the minimum concentration of composition required to kill the microorganisms.

The subject of data set [7] is S.mutans. Description: Bactericidal effects against established dental plaque (nichrome wires), S.mutans. Conditions: Streptococcus mutans, 2 min, read-out: Minimum Concentration Required for Complete Bactericidal Effect. The data set is classed as cell-based. The procedure:
as §4

Data set [8] has as its system Staphylococcus aureus. Nature of the data set: Minimum concentration to completely inhibit growth, Staphylococcus aureus. The data set is classed as cell-based. Conditions: procedure of Example 6. As to the method: AN-10 is tested for effectiveness against the bacterium Staphylococcus aureus in accordance with the procedure set forth in Example 6.
The subject of data set [9] is Actinomyces viscosus. Nature of the data set: Minimum concentration which will completely inhibit growth, Actinomyces viscosus. The data set is classed as cell-based. Conditions: A.viscosus, growth medium, read-out: Min. Conc. (minimum concentration which will completely inhibit growth).
Data set [10] deals with S. mutans. Description: Minimum concentration which will completely inhibit growth, S. mutans. Format: cell-based. Conditions: Streptococcus mutans, procedure of Example 6. As to the method: 5-n-octanoyl-2',3',4',5',6'pentafluorosalicylanilide is tested for effectiveness against S. mutans essentially in accordance with the procedure of Example 6.
The conditions of data set [11]: background statement; cited from earlier work.
Where [12] appears, read: A.viscosus established plaque, immersion time two minutes.
Where [13] appears, read: S.mutans established plaque, immersion time two minutes.

For the compound `CCCCCCCCCC(=O)c1ccc(O)c(C(=O)Nc2ccc([N+](=O)[O-])cc2)c1` [AN-10, 5-n-decanoyl-4'-nitrosalicylanilide], the “deaths within the first week following single dose” value in data set [1] (50, 750 and 2000 mg/kg oral, four rats each, the one death (50 mg/kg) attributed to trauma of administration) is “only one animal died”. The LD50 in data set [1] (rat, in vivo, single dose oral route, female Osborne-Mendel white rats) is more than 2000 mg/kg. Moreover, the “% Inhibition @ Mol.Conc.” value in data set [2] (@ 1 × 10^-4 Mol.Conc.) is 96%; in data set [3] (@ 3.3 × 10^-4 Mol.Conc.), 96%; in [4], 86%; in data set [5] (@ 1 × 10^-3 Mol.Conc.), 59%. For the same compound, the pIC50 in data set [2] (read-out: ID50 Adherent Growth) was 4.15; in [2] (read-out: ID50 Total Growth), 4.14; in data set [3] (read-out: ID50 Adherent Growth), 4.37; in data set [3] (read-out: ID50 Total Growth), 4.08; in data set [4] (read-out: ID50 Adherent Growth), 3.17; in data set [4] (read-out: ID50 Total Growth) it was 3.43. The pIC50 in data set [5] (read-out: ID50 Adherent Growth) is 1.64; in data set [5] (read-out: ID50 Total Growth), 2.80. Further, the MBC came to 125 µg/mL (≈ 303 µM) in data set [6] (setting [12]) and 62.5 µg/mL (≈ 152 µM) in data set [7] (setting [13]). The same compound registered an MIC in data set [8] of less than 10 µg/mL.
As for `CCCCCCCCCCCC(=O)c1ccc(O)c(C(=O)Nc2cccc(C(F)(F)F)c2)c1` [5-n-dodecoyl-3'-trifluoromethylsaliclyanilide], the MIC in data set [9] fell in the range of 0.5 to 1 µg/mL (≈ 1.08 to 2.16 µM).
For `CCCCCCCCCCCC(=O)c1ccc(O)c(C(=O)Nc2ccc(Br)cc2)c1` [5-n-dodecoyl-4'-bromosalicylanilide], in data set [9], the MIC amounted to 0.05 µg/mL (≈ 0.105 µM).
As to `CCCCCCCC(=O)c1ccc(O)c(C(=O)Nc2c(F)c(F)c(F)c(F)c2F)c1` [5-n-octanoyl-2',3',4',5',6'pentafluorosalicylanilide], the MIC in [10] was approximately 0.5 µg/mL (≈ 1.16 µM).
On to `O=C(Nc1cccc(C(F)(F)F)c1)c1cc(Br)cc(Br)c1O` [SBF-1, Fluorophene], for which the results for the “% Inhibition @ Mol.Conc.” value in data set [2] (@ 3.3 × 10^-3 Mol.Conc.) and in data set [5] (@ 2 × 10^-3 Mol.Conc.) were 65% and 86%, respectively.
Consider `CCCCCCCC(=O)c1ccc(O)c(C(=O)Nc2ccc([N+](=O)[O-])cc2)c1` [5-n-octoyl-4'-nitrosalicylanilide], for which, in data set [9], the MIC is 0.125 µg/mL (≈ 0.325 µM).
Turning to `[H]/N=C(\N/C(=N/[H])NCCCCCCNC(=N)NC(=N)Nc1ccc(Cl)cc1)Nc1ccc(Cl)cc1` [CLHX, Chlorhexidine], the “% Inhibition @ Mol.Conc.” value in data set [2] (@ 1 × 10^-3 Mol.Conc.) turned out to be 85%; in [3] (@ 1 × 10^-3 Mol.Conc.), 78%; in data set [4], 70%; in data set [5] (@ 1 × 10^-3 Mol.Conc.), 95%. For the same compound, the pIC50 is 4.54 in data set [2] (read-out: ID50 Adherent Growth); 4.64 in data set [2] (read-out: ID50 Total Growth); 2.29 in data set [3] (read-out: ID50 Adherent Growth); 2.36 in [3] (read-out: ID50 Total Growth); 1.07 in data set [4] (read-out: ID50 Adherent Growth); 3.41 in data set [4] (read-out: ID50 Total Growth). Also, the pIC50 in data set [5] (read-out: ID50 Adherent Growth) was 4.01; in data set [5] (read-out: ID50 Total Growth), 4.07. Besides, the figures for the MBC in data set [6] (setting [12]) and in data set [7] (setting [13]) were 500 µg/mL (≈ 989 µM) and 250 µg/mL (≈ 495 µM), respectively.
In the case of `O=C(Nc1ccc(Br)cc1)c1cc(Br)cc(Br)c1O` [TBS, Tribromosalan], the “% Inhibition @ Mol.Conc.” value in data set [2] (@ 1 × 10^-3 Mol.Conc.) amounted to 53%; in [3] (@ 1.5 × 10^-3 Mol.Conc.), 86%; in [4], 46%; in data set [5] (@ 1.5 × 10^-3 Mol.Conc.), 46%. For the same compound, the MBC in data set [6] came to 500 µg/mL (≈ 1110 µM); in data set [7], 1000 µg/mL (≈ 2220 µM).
Turning to `CCCCCCCCCCCC(=O)c1ccc(O)c(C(=O)Nc2ccc([N+](=O)[O-])cc2)c1` [5-n-dodecoyl-4'-nitrosalicylanilide], the MIC in [9] worked out at 0.05 µg/mL (≈ 0.113 µM).
For tetrachlorosalicylanilide, in [11], the “allergic reactions in man” value was “allergic reactions in man”.
Consider `CCCCCCCCCC(=O)c1ccc(O)c(C(=O)Nc2ccc(Br)cc2)c1` [5-n-decoyl-4'-bromosalicylanilide], for which the MIC in data set [9] stood at 0.125 µg/mL (≈ 0.28 µM).
